The IC50 is the concentration that inhibits the measured activity by half.

Data on two compounds can be found in patent USRE47193E1, “Selectively substituted quinoline compounds” (EISAI R&D MANAGEMENT CO., LTD., priority 2013, dated 2019).

The test has as its target T1, mouse TLR7 (Mus musculus, UniProt P58681).
T1 sequence (P58681 27-1050): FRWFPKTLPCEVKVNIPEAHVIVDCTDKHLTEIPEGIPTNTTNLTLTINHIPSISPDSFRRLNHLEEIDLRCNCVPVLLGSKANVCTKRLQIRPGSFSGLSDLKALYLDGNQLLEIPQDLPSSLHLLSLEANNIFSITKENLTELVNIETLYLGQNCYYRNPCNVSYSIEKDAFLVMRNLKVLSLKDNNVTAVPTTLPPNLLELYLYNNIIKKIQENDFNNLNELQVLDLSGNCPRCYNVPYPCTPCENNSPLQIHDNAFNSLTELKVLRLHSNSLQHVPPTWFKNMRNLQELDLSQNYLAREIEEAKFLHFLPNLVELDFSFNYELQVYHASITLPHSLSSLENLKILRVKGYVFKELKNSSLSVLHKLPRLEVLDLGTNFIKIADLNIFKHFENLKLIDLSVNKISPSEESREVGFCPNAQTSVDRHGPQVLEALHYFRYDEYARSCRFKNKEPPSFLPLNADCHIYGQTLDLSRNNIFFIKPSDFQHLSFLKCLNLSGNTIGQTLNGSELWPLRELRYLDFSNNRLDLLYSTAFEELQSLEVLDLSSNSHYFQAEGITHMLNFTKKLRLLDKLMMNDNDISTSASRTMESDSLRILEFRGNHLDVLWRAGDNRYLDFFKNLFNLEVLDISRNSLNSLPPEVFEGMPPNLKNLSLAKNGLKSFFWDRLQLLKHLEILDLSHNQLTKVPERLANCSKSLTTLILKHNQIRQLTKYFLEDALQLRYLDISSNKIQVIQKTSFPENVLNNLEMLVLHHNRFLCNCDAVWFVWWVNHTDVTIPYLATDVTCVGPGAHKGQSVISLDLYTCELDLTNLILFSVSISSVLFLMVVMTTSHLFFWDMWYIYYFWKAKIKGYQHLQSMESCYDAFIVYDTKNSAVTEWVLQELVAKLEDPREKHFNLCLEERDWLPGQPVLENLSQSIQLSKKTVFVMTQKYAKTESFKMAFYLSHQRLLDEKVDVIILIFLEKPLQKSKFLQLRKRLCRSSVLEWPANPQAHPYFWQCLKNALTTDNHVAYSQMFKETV
The test can be described thus: HEK-293 mouse TLR7 NF-kappaB luciferase reporter assay (CL097). In kind it is cell-based. Particulars: HEK-mTLR7, average of three tests. As to the method:
Effects on mouse TLR7 were also compared. Cells were stimulated overnight with TLR7/8 agonist CL097 at pre-determined ED70-80: 3 ug/ml for HEK-hTLR7, 1.5 ug/ml for HEK-mTLR7 and 12 ug/ml for HEK-hTLR8, before reading luminescence intensity. Three tests were performed and IC50 value was determined using Graphpad Prism 6 nonlinear regression curve fit.
HEK-293 cells (ATCC) were engineered to stably express a NF-kappaB transcription factor inducible E-selectin (ELAM-1) luciferase reporter derived from the plasmid pGL3 (Promega) containing base pairs −2241 bp to −254 bp from the promoter of the human E-selectin gene (Accession No. NM_000450). These cells were then subsequently engineered to stably and individually express human TLR4, TLR7 or TLR9 full-length ORF cDNAs. Human TLR4 cDNA (Accession No. NM_138554) was cloned into pcDNA 3.0 expression vector (Invitrogen). TLR4 transfected cells were also engineered to express human MD-2 co-receptor [MD-2 cDNA (Accession No. NM_015364) was cloned into the pEF-BOS vector] and were supplemented with 10 nM soluble CD14 (R&D Systems) in the media to optimize LPS responsiveness. Human TLR9 cDNA (Accession No. NM_017442) was cloned into the pBluescript II KS vector (Agilent). Human TLR7 cDNA (Accession No. NM_016562) was obtained from OriGene. […]
In general terms: Reporter assays use an easily measured gene product as a stand-in for the process of interest.

Like-named read-outs stand apart in the source and are kept apart here.

Compound `C[C@@H]1CN(c2ccc(C#N)c3ncccc23)C[C@H](C(=O)N[C@H]2CNC[C@H]2F)O1.Cl` [ER-899742, (2R,6R)-4-(8-cyanoquinolin-5-yl)-N-[(3S,4R)-4-fluoropyrrolidin-3-yl]-6-methylmorpholine-2-carboxamide hydrochloride] gave a concentration for half-maximal inhibition (IC50) (IC50 average) of 0.071 µM. `CCN(CCO)CCCC(C)Nc1ccnc2cc(Cl)ccc12` (centres unmarked) [HCQ, hydroxychloroquine, reference compound]: the IC50 (read-out: IC50 average) is 14.1 µM.
